What was measured:
[1] = tested on: primary mouse CD4+ T cells; experiment: MTS proliferation assay, TGF-β1 treated primary mouse CD4+ T cells; assay type: cell-based
Procedure: Compounds A-D were tested to determine whether they could inhibit TGF-β signaling in primary mouse CD4^+ T cells.
Primary mouse CD4^+ T cells were isolated from the spleens of C57/B6 mice using the RoboSep™ cell isolation system (Stemcell Technologies). 0.5 μg/ml of hamster anti-mouse CD3e antibody (145-2C11; eBioscience) was coated onto a 96 well flat bottom plate overnight. 1×10^5 purified CD4^+ T cells were incubated with 1 μg/ml soluble hamster anti-mouse CD28 antibody (37.51, BD Biosciences), 1 nM TGF-β1 and 8-fold serial dilutions of Compounds A-D. After 72 hours, cell proliferation was measured using an MTS assay (Promega) in accordance with the manufacturer's instructions.

ALK5 = target: T1, ALK5 (Homo sapiens, UniProt P36897); experiment: recombinant kinase assays (IC50 and Ki); assay type: biochemical; conditions: Compound C versus Compound N
T1 sequence (P36897 34-503): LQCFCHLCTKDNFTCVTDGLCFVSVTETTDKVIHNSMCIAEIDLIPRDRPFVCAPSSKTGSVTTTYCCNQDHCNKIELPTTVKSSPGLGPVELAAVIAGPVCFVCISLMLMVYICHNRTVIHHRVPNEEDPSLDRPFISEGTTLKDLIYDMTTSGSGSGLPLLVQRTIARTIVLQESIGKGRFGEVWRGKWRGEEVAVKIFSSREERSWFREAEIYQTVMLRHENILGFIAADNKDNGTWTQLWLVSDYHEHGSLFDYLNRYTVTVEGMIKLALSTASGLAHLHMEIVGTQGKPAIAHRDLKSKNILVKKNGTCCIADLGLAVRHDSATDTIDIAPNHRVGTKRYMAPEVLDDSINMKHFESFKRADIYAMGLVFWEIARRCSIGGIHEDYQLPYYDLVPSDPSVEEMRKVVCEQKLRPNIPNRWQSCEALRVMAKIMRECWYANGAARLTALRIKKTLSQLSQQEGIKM
From the text: Compound N was compared to Compound C in a number of in vitro assays.

[2] = tested on: CMV responsive human PBMCs; experiment: Cytokine secretion assay (IFN-γ) with CMV antigens; assay type: cell-based; conditions: 1 nM TGF-β, 1 ng/ml each agent, 48 hours
Procedure: In a 96-well round bottom plate, 1.5×10^5 CMV responsive human PBMCs (Astarte Biologics) were cultured with 1.5 μg/ml CMV antigens (Astarte Biologics) in serum free medium for 48 hours alone or in the presence of (i) 1 nM TGF-β, (ii) 1 nM TGF-β and T3A #5 at 1 ng/ml, (iii) 1 nM TGF-β and pembrolizumab at 1 ng/ml, (iv) 1 nM TGF-β, T3A #5 at 1 ng/ml, and pembrolizumab at 1 ng/ml, or (v) 1 nM TGF-β and isotype control antibody (negative control). IFN-γ levels were measured in the supernatants using a R&D ELISA kit.

**Q.** For `Cc1cccc(-c2nc(N)sc2-c2ccc3ncccc3n2)n1` [Compound A, 4-(6-methylpyridin-2-yl)-5-(1,5-naphthyridin-2-yl)-1,3-thiazol-2-amine], which “Experiment 1 IC50 (nM)” value ([1]; 1 nM TGF-β1, 72 hours) is on record?
**A.** The value was “Value not obtained”.

**Q.** What about the “reversal of TGFβ-mediated inhibition of T cell proliferation” value ([1]; in words) of the same compound?
**A.** Its value is “did not show consistent effects”.

**Q.** `CNCCOc1ccc(-c2cc(-c3c[nH]nc3-c3ccccn3)ccn2)cc1` [Compound B, N-methyl-2-(4-{4-[3-(pyridin-2-yl)-1H-pyrazol-4-yl]pyridin-2-yl}phenoxy)ethan-1-amine] was tested. Which “reversal of TGFβ-mediated inhibition of T cell proliferation” value ([1]; in words) did it give?
**A.** The value was “reversed TGFβ-mediated inhibition of T cell proliferation”.

**Q.** Which results are given for `CNCCOc1ccc(-c2cc(-c3c[nH]nc3-c3cccc(C)n3)ccn2)cc1` [Compound C, N-methyl-2-(4-{4-[3-(6-methylpyridin-2-yl)-1H-pyrazol-4-yl]pyridin-2-yl}phenoxy)ethan-1-amine]?
**A.** reversal of TGFβ-mediated inhibition of T cell proliferation ([1]; in words): reversed TGFβ-mediated inhibition of T cell proliferation; potency relative to Compound N in the recombinant assays (ALK5): 10 fold

**Q.** `CCNC(=O)c1ccc2c(c1)NC(=O)/C2=C(\Nc1ccc(N(CCNC)S(C)(=O)=O)cc1)c1ccccc1` [Compound D, (Z)-N-ethyl-3-(((4-(N-(2-(methylamino)ethyl)methylsulfonamido)phenyl)amino)(phenyl)methylene)-2-oxoindoline-6-carboxamide] was tested. Which “Experiment 1 IC50 (nM)” value ([1]; 1 nM TGF-β1, 72 hours) did it give?
**A.** Its value is “Value not obtained”.

**Q.** And the “Experiment 2 IC50 (nM)” value ([1]; Experiment 2, 1 nM TGF-β1, 72 hours)?
**A.** The value was “Value not obtained”.

**Q.** What about the “IC50 value in mouse CD4+ T cells” value ([1]; two different experiments, in words) of the same compound?
**A.** Its value is “not obtained”.

**Q.** “pembrolizumab: T cell checkpoint inhibitor (anti-PD1, Merck)” was tested. Which IFN-γ levels [2] did it give?
**A.** The IFN-γ levels was “increase IFN-γ levels”.

Reference: patent US20220249680A1, “ANTIBODY-ALK5 INHIBITOR CONJUGATES AND THEIR USES” (Synthis Therapeutics, Inc., priority 2019, published 2022)
